According to patent publication US11419843B2, “Small molecule BCL-2 functional converters as cancer therapeutics” (Oregon State University, priority 2016, dated 2022):
Entries after “also recorded” stand apart in the source; their conditions may differ.

What was measured:
Type in all cases: cell-based, human
[1] = test system: Bcl-2 low and high expressing Jurkat lymphoma cells (Jurkat/Vector, Jurkat/Bcl-2); test: Cell viability in Bcl-2 low and high expressing Jurkat cells; conditions: for Effect of Bcl-2 expression on Jurkat cells exposed to cancer therapeutics: Jurkat cells with high and low expression of Bcl-2 (FIG. 9G); for Bcl-2 dependent effects in Jurkat Lymphoma cells: Bcl-2 low and high expressing Jurkat lymphoma cells treated for 72 hours with various concentrations; for minimal effective concentration: Homo sapiens, Jurkat lymphoma cells, 72 hours, n/d means no reduction was detected at concentrations tested, read-out: Lowest effective dose (minimal effective concentration that induced Bcl-2-dependent reduction in cell viability)
[2] = test system: H460 parental and resistant cells; test: Colony formation (2D clonogenic, 3D soft agar) of H460 parental and resistant cells; conditions: 10 nM paclitaxel, continuously for 14 days
From the text: Colony forming ability (%) relative to vehicle treatment. Representative of three independent conducted assays in triplicate.

[3] = test system: H460 parental and derived paclitaxel resistant cells; test: Viability of H460 parental and paclitaxel resistant cells
Procedure: Percentage viability relative to vehicle treatment was calculated. Representative of three independent assays conducted in triplicate.
FIG. […] Percentage viability relative to vehicle treatment. Representative of three independent assays conducted in triplicate.
Representative of three independent assays conducted in triplicate.
Cell lines were obtained from ATCC and maintained according to manufacturer's instructions. The human lung cancer cell line NCI-H460, H69AR (ATCC) were cultured in RPMI medium (Corning) containing 10% FBS. The human breast cancer cell line MDA-MB-231 was cultured in DMEM medium (Corning) containing 10% FBS. All cell lines were maintained at 5% CO2 and 37° C. Paclitaxel resistant H460 cells were derived by treating cells once a week over 6 weeks, initially with 1 nM paclitaxel and then increasing dose incrementally up to 100 nM. Once resistance was confirmed, paclitaxel was withdrawn from the cells. Resistance to paclitaxel was maintained without presence of paclitaxel measured up to 2 months. A parental line was maintained for a similar number of passages as the resistant line. All experiments were performed using cells that had not been treated with paclitaxel in at least three passages.
Cells of interest were plated at 2000 cells per well in 96-well black tissue culture plate and allowed to adhere to the plate overnight. Viability assays were performed using 10% serum medium unless otherwise stated. Drugs were diluted in supplemented tissue culture medium and added at increasing concentrations, with DMSO as a vehicle control. […] Luminescence was measured using Tropix TR717 Microplate luminometer. Percentage of viable cells is relative to vehicle (100%). As a complementary viability assay, eBioscience Fixable Viability Dye eFluor 660(65-0864) was used to stain dead cells and analyzed using flow cytometry.

[4] = test system: MDA-MB-468 parental and derived paclitaxel or doxorubicin resistant cells; test: Viability of MDA-MB-468 parental and derived resistant cells; conditions: 72 hours
Procedure: Percentage viability relative to vehicle treatment. Representative of three independent assays in triplicate.
Percentage viability relative to vehicle treatment.
Percentage viability relative to vehicle treatment. Representative of three independent assays conducted in triplicate.
Cells of interest were plated at 2000 cells per well in 96-well black tissue culture plate and allowed to adhere to the plate overnight. Viability assays were performed using 10% serum medium unless otherwise stated. Drugs were diluted in supplemented tissue culture medium and added at increasing concentrations, with DMSO as a vehicle control. Cells were then incubated for either 48 hour or 72 hours in presence of the compound, Promega Titer Glo was added to the wells at the assay end point according to manufacturer's protocol. Luminescence was measured using Tropix TR717 Microplate luminometer. Percentage of viable cells is relative to vehicle (100%). As a complementary viability assay, eBioscience Fixable Viability Dye eFluor 660(65-0864) was used to stain dead cells and analyzed using flow cytometry.

[5] = test system: MDA-MB-231/Vector and MDA-MB-231/Bcl-2 cells; test: Viability screening assay in MDA-MB-231 cells with high and low Bcl-2 (CellTiter Glo); conditions: for Bcl-2 selective reduction in viability, MDA-MB-231/Bcl-2 vs MDA-MB-231/Vector: 10 μM, 24 h, 10% serum
Procedure: In one example, a triple negative breast cancer cell line, MDA-MB-231, was used for screening these libraries. […] At the end of the assay, cell viability was determined using the cell titer Glo assay. […] A hit was defined as a compound inducing more than 20% reduction in viability of MDA-MB-231/Bcl-2 cells, compared to vector controls (MDA-MB-231/Vector). In the next step these shortlisted small molecules were tested for their ability to convert the conformation of Bcl-2 into a pro-apoptotic one.
To screen for Bcl-2 selective compounds, MDA-MB-231 cells (MDA-MB-231/Vector and MDA-MB-231/Bcl-2) were plated at 4000 cells per well in a 96 well black opaque plate. The day after plating the cells, treatment from the library plates was done so as to add 1 μL of the compound into the cells, resulting in 10 μM concentration. For non-specific […], 25 nM of staurosporin was used. […] Post treatment viability was assessed by CellTiter Glo Cell Viability assay (Promega Inc., Madison, Wis.) as per manufacturer instructions.
Viability for test compounds in each cell line (MDA-MB-231/Vector and MDA-MB-231/Bcl-2) was normalized to their respective vehicle treatments. Compounds that had at least 20% less viability in the MDA-MB-231/Bcl-2 cell line than the MDA-MB-231/Vector cell line were selected as initial hits and shortlisted for revalidation. Revalidated compounds were reordered for further testing and characterization. All data analyses were performed using Microsoft Excel.

[6] = test system: H460 parental and resistant cells; test: Annexin-V apoptosis assay in H460 parental and resistant cells; conditions: 10 nM paclitaxel, 48 hours
Procedure: FIG. 25E is the results of Annexin-V apoptosis assay in H460 cells treated for 48 hours with vehicle or paclitaxel 10 nM, quantification right panel.
Cells were seeded into 6 well tissue culture plates to give approximately 50% confluence and allowed to attach overnight. The cells were then treated for a period of time indicated in figure legend with the appropriate compound at various concentrations (see figure legends). An Annexin V-conjugate PerCP-eFluor 710 apoptosis detection kit was used as described by the manufacturer's protocol (eBioscience 88-8008). Harvesting of cells included collection of floating and attached cells following trypsinization. Data were acquired using an CytoFLEX S flow cytometer (Beckman Coulter, Brea, Calif.) and 10,000 events on the PC5.5 channel were analyzed using CytExpert software (Beckman Coulter). For Nur77 GFP tagged annexin V analysis, GFP positive population were selected and then Annexin V+population was determined. For each sample, 10,000 GFP+ events were collected. Annexin V positive cell population was considered to be the apoptotic population, and the percent of annexin V positive cell population was used to determine the extent of apoptosis.

| Compound | Bcl-2 dependent effects in Jurkat Lymphoma cells [1] | minimal effective concentration [1] [µM] | also measured |
| --- | --- | --- | --- |
| CS(=O)(=O)CCNCc1ccc(-c2ccc3ncnc(Nc4ccc(OCc5cccc(F)c5)c(Cl)c4)c3c2)o1 [lapatinib, reference compound] | – | – | Effect of Bcl-2 expression on Jurkat cells exposed to cancer therapeutics [1]: Bcl-2 expression protected Jurkat cells |
| Nc1nc(N)c2nc(CNc3ccc(C(=O)N[C@@H](CC(=O)O)C(=O)O)cc3)cnc2n1 [Compound 3] | Yes | 10 | – |
| CC(=O)O[C@H]1C(=O)[C@@]2(C)[C@H]([C@H](OC(=O)c3ccccc3)[C@]3(O)C[C@H](OC(=O)[C@H](O)[C@@H](NC(=O)c4ccccc4)c4ccccc4)C(C)=C1C3(C)C)[C@]1(OC(C)=O)CO[C@@H]1C[C@@H]2O [paclitaxel, reference compound] | – | – | Colony formation in 2D and 3D soft agar assays, H460 parental and resistant [2]: inhibited the parental cells ability to form colonies in 2D and 3D soft agar assays, while resistant lines tumorigenicity was unchanged; Reduction of viability of H460 parental cells ([3]; paclitaxel, 72 hours): 90%; Viability of H460 paclitaxel resistant line ([3]; paclitaxel, 72 hours): unaffected; Viability of MDA-MB-468 parental and paclitaxel resistant lines ([4]; paclitaxel): derived resistant line viability was unaffected by 50 nM, however parental line was sensitive; Viability of MDA-MB-231 cells expressing pcDNA vector or Bcl-2 ([5]; paclitaxel 10 nM): reduced viability of MDA-MB-231 cells transfected with pcDNA vector, while Bcl-2 transfected MDA-MB-231 cells were partially resistant; Induction of apoptosis (Annexin V), H460 resistant vs parental [6]: minimal induction of apoptosis in the derived H460 resistant line compared to parental sensitive line |
| COc1ccc([N+](=O)[O-])cc1CSc1nc2sc3c(c2c(=O)n1-c1ccccc1)CCCC3 [BFC1111, 2-[(2-methoxy-5-nitrobenzyl)thio]-3-phenyl-5,6,7,8-tetrahydro[1] benzothieno[2,3-d]pyrimidin-4(3H)-one] | – | – | Viability of H460 resistant vs parental line ([3]; 72 hours): reduced viability of resistant line preferentially; Bcl-2 selective reduction in viability, MDA-MB-231/Bcl-2 vs MDA-MB-231/Vector ([5]; listed as BFC1110-A): good Bcl-2 dependent effects in MDA-MB-231 cells; also recorded: comparable Bcl-2 selective induction of cell death as the parent BFC1110 |
| Nc1nc(N)c2nc(CC3CCCc4cc(C(=O)N[C@@H](CCC(=O)O)C(=O)O)ccc43)cnc2n1 (some centres unmarked) [Compound 10] | Yes | 0.1 | – |
| CN(Cc1cnc2nc(N)nc(N)c2n1)c1ccc(C(=O)N[C@@H](CCC(=O)O)C(=O)O)cc1F [Compound 5] | Yes | 0.01 | – |
| Nc1nc(N)c2nc(CNc3ccc(C(=O)N[C@@H](CCC(=O)O)C(=O)O)cc3)cnc2n1 [Compound 1] | Yes | 0.01 | – |
| C=CCN(Cc1cnc2nc(N)nc(N)c2n1)c1ccc(C(=O)N[C@@H](CCC(=O)O)C(=O)O)cc1 [Compound 8] | Yes | 0.01 | – |
| Nc1ccn([C@@H]2O[C@H](CO)[C@@H](O)C2(F)F)c(=O)n1 [gemcitabine, reference compound] | – | – | Effect of Bcl-2 expression on Jurkat cells exposed to cancer therapeutics [1]: Bcl-2 expression protected Jurkat cells |
| COc1cccc2c1C(=O)c1c(O)c3c(c(O)c1C2=O)C[C@@](O)(C(=O)CO)C[C@@H]3O[C@H]1C[C@H](N)[C@H](O)[C@H](C)O1 [doxorubicin, reference compound] | – | – | Susceptibility of H460 paclitaxel resistant line (cross resistance) ([3]; viability assays and colony formation assays): paclitaxel resistant line was also less susceptible to doxorubicin treatment; Cross-resistance of MDA-MB-468 paclitaxel-resistant line [4]: cross-resistant; Effect of Bcl-2 expression on Jurkat cells exposed to cancer therapeutics [1]: Bcl-2 expression protected Jurkat cells |
| CN(Cc1cnc2nc(N)nc(N)c2n1)c1cc(Cl)c(C(=O)N[C@@H](CCC(=O)O)C(=O)O)c(Cl)c1 [Compound 9] | Yes | 1 | – |
| O=P1(N(CCCl)CCCl)NCCCO1 (centres unmarked) [cyclophosphamide, reference compound] | – | – | Effect of Bcl-2 expression on Jurkat cells exposed to cancer therapeutics [1]: Bcl-2 expression protected Jurkat cells |
| 2-Iodo acetamide [Iodoacetamide, reference compound] | – | – | Bcl-2 selective reduction in viability, MDA-MB-231/Bcl-2 vs MDA-MB-231/Vector [5]: selectively induce more cell death in high-Bcl-2 expressing MDA-MB-231 cells |
| O=c1[nH]cc(F)c(=O)[nH]1 [5-fluoro uracil, reference compound] | – | – | Cross-resistance of MDA-MB-468 paclitaxel-resistant line [4]: cross-resistant; Effect of Bcl-2 expression on Jurkat cells exposed to cancer therapeutics [1]: Bcl-2 expression protected Jurkat cells |
| CN(Cc1cnc2nc(N)nc(N)c2n1)c1ccc(C(=O)N[C@@H](CCC(=O)O)C(=O)O)c2ccccc12 [Compound 11] | Yes | 0.001 | – |
| CN(Cc1cnc2nc(N)nc(N)c2n1)c1c(Cl)cc(C(=O)N[C@@H](CCC(=O)O)C(=O)O)cc1Cl [Compound 2] | Yes | 0.001 | – |
| CC(Nc1ccc(C(=O)N[C@@H](CCC(=O)O)C(=O)O)cc1)c1cnc2nc(N)nc(O)c2n1 (some centres unmarked) [Compound 4] | No | – | – |
| CN(Cc1cnc2nc(N)nc(N)c2n1)c1c(F)cc(C(=O)N[C@@H](CCC(=O)O)C(=O)O)cc1F [Compound 6] | Yes | 0.01 | – |
| Cc1cc(C(=O)O)cc(C)c1N(C)Cc1cnc2nc(N)nc(N)c2n1 [Compound 7] | No | – | – |
| Nc1nc(N)c2nc3c(nc2n1)C(=O)N(c1ccc(C(=O)O)cc1)C3 [Compound 12] | No | – | – |
